Results from patent US20090093538A1, “Method for treating cancer” (priority 2007, published 2009).
“Also recorded” adds a separate entry of the source.

Tests used:
[1] = system: cytochrome c and caspase 3; test: Apoptotic markers, Western blot, Ramos cells; format: cell-based; conditions: 100 nM
Procedure: Ramos cells were plated for 3 hours then treated with 100 nM elesclomol for the indicated times. To determine cytochrome c levels in the cytoplasm and mitochondria (a) Ramos cells were fractionated using the method detailed in (Hase et al, Journal of Biol. Chem. Vol. 277, pp. 46950-58, 2002) and western blots were probed with Cytochrome C primary antibody (BD Pharmingen, clone 7H8.2; C12). All Western blots were probed with secondary antibodies conjugated to HRP (Cell Signaling) and visualized using Lumiglo (Cell Signaling) peroxide reagents. Images were captured from the Kodak Image Station 440. For Caspase 3 analysis (b), whole cell lysates were isolated using 1× cell lysis buffer (Cell Signaling, Danvers, Mass.) plus protease inhibitors (Calbiochem, San Diego, Calif.). 30 ug of protein was run on a 4-12% Nupage gel (Invitrogen) and immunoblotted using standard procedures. The blots were probed with Caspase 3 antibody (9662) and cleaved Caspase 3 primary antibodies (9661) both from Cell Signaling.

[2] = system: Ramos cells; test: ROS generation, carboxy-H2DCFDA probe, flow cytometry; format: cell-based
Procedure: In these experiments, we monitored the production of ROS using the cell permeable Carboxy-H2DCFDA probe. When this probe is oxidized by ROS, it emits a green fluorescence that can be detected using flow cytometry or fluorescent microscopy. […] 25 μM carboxy-H2DCFDA (Invitrogen. C400) working solution was added to cover the cells, and the cells were incubate for 30 minutes at 37° C., protected from light. The cells were gently washed three times in warm HBSS/Ca/Mg. ROS levels, as determined by fluorescence intensity, were determined by flow cytometry (excitation at 495 nm, emission at 529 nm).
(§1) Tiron is a direct scavenger of ROS and is a potent inhibitor of oxidative stress.
Ramos cells were treated with elesclomol (500 nM) for the indicated times then washed gently once with warm HBSS/Ca/Mg (Invitrogen Carlsbad, Calif. Cat# 14025). 25 μM carboxy-H2DCFDA (Invitrogen Cat #C400) working solution was added to cover the cells and they were incubated for 30 minutes at 37° C., protected from light. The cells were gently washed three times in warm HBSS/Ca/Mg. ROS levels (fluorescence intensity) were determined by flow cytometry (excitation at 495 nm, emission at 529 nm) using a Becton Dickinson FACSCalibur equipped with CellQuest Pro software. Data is plotted as percent of elesclomol-treated cells with DCFDA fluorescence relative to DMSO (control) treated cells (see FIG. 49).

[3] = system: Stage 1V metastatic melanoma
Procedure: A phase II clinical trial was conducted in patients that had Stage 1V metastatic melanoma patients.
Patients were treated until progression of the disease. […] The tumor assessments were performed at baseline, Cycle 2, and every other Cycle thereafter.

[4] = in vivo
[5] = system: Hs294T (or MDA-MB-435) cells; test: Affymetrix transcriptional profiling; format: cell-based, human; conditions: Hs294T cells; NAC 5 mM 30 minutes prior to Compound 1 100 nM; 6 hours
Procedure: RNA was isolated from the cells 6 hours after treatment using the RNeasy kit according to the manufacturers instructions (Qiagen Cat. # 71404) and RNA quality was confirmed by spectrophotometric examination. cDNA was synthesized using the One-Cycle cDNA Synthesis Kit (Affymetrix Cat. # 900431) according to the manufacturers instructions. cDNA was labeled using the GeneChip IVT Labeling Kit (Affymetrix Cat. #900449) and analyzed in duplicate on the Affymetrix Human Genome U133Plus 2.0 gene chip array according to standard Affymetrix protocols. Data sheets from the Affymetrix Gene Chip Scanner 3000 were imported into Microsoft Excel and filtered by the following criteria: greater than or equal to 1.5 fold increase, greater than or equal to 0.4SE between replicates; and 50 (low stringency) or 500 (high stringency) for the lowest signal.
NAC is the rate-limiting amino acid for the production of the antioxidant glutathione. Addition of NAC to cells increases the levels of endogenous glutathione which in turn blocks oxidative stress and ROS generation. […] RNA was isolated from the cells 6 hours after treatment and Affymetrix analysis was performed as above.

[6] = system: Hsp70; test: Hsp70 RNA induction, quantitative PCR, Hs294T cells; format: cell-based, human; conditions: Compound 1 100 nM, 6 hours
Procedure: […] 500 ng of RNA from each sample was used for cDNA synthesis using iScript cDNA Synthesis Kit (Biorad, Cat# 170-8891). 1 uL of cDNA mixture was used with the iQ SYBR Green Supermix (Biorad, Cat# 170-8882) to perform quantitative PCR in an iCycler machine (Biorad) using standard protocols. QPCR for each sample/time point was performed in duplicate. The following primers for inducible human Hsp70 and gapdh were used:
Ct values were obtained from the iCycler program and used in an equation (2^−ΔΔCT) for determining the amount of target relative to gapdh expression. This compares the relative expression of Hsp70 to the corresponding levels of gapdh in each sample. Duplicate wells were averaged and graphed with their corresponding standard deviation.
Activation of HSF-1 by oxidative stress has been reported in the literature to require p38 kinase signaling in some cell lines.

[7] = system: HSB2 cells; test: Apoptosis, Annexin V / propidium iodide FACS; format: cell-based; conditions: for relative levels of apoptotic cells: agent alone, without Compound 1
Procedure: (§2) To confirm that the ability of NAC to block Compound 1-induced cell death was not cell-line specific, we examined the role of oxidative stress in two additional cell lines by FAC analysis. RAMOS and HSB2 cells (ATCC) were seeded in 6-well plates at 1×10^6 cells/well/4 mL and incubated at 37° C. for 4 hours. […] After incubation the cells were stained with Annexin V and propidium iodide (Vybrant Apoptosis assay kit, Cat# V13241, Invitrogen, Molecular Probes) for measuring apoptotic cells by FACS analysis.
The cells were harvested and stained with Annexin V and propidium iodide for measuring apoptotic cells by FACS analysis.

[8] = system: MDA-MB-435 cells; test: Cell viability (Cell Counting Kit-8); format: cell-based, human; conditions: […] NAC, 500 nM Compound 1, 72 hours
Procedure: The cells were further cultured at 37° C. for 72 hours and cell viability was measured with Cell Counting Kit-8 (Dojindo Laboratories, Cat# CK04).

[9] = system: Ramos cells; test: Apoptosis, Annexin V / propidium iodide FACS; format: cell-based; conditions: 5 mM NAC
Procedure: as §2

[10] = system: MSK1; test: MSK1 phosphorylation, Western blot, MDA-MB-435 cells; format: cell-based, human; conditions: 20 μM SB203580, 0.1 or 0.5 μM Compound 1
Procedure: (§3) After treatment the cells were lysized and used for Western blot analysis.
Samples were run on a SDS-PAGE gel and proteins were transferred onto a nitrocellulose membrane by a semi-dry transfer. Nitrocellulose was blocked with 5% skim milk in TBS with 0.5% Tween at room temperature for 1 hour and then probed with anti-p-MSK1 (Thr581) (#9595, Cell Signaling) antibody. The nitrocellulose was then probed with secondary antibodies, HRP-conjugated goat anti-rabbit IgG and HRP-conjugated horse anti-mouse IgG (#7074, #7076, Cell Signaling). LumiGLO reagent, 20× Peroxide (#7003, Cell Signaling) was used to visualize gel (see FIG. 36).
Samples were run on a SDS-PAGE gel and proteins were transferred onto a nitrocellulose membrane by a semi-dry transfer. Nitrocellulose was blocked with 5% skim milk in TBS with 0.5% Tween at room temperature for 1 hour and then probed with anti-p-MSK1 (Thr581) (#9595, Cell Signaling) antibody. Tubulin was used as a normalization control and was probed with Anti-Tubulin (T9026, Sigma) antibody.

[11] = system: MAPKAPK-2; test: MAPKAPK-2 phosphorylation, Western blot, CEM and CV-1 cells; format: cell-based; conditions: 20 μM SB203580, 0.1 or 0.5 μM Compound 1
Procedure: as §3
Samples were run on a SDS-PAGE gel and proteins were transferred onto a nitrocellulose membrane by a semi-dry transfer. Nitrocellulose was blocked with 5% skim milk in TBS with 0.5% Tween at room temperature for 1 hour and then probed with anti-p-MAPKAPK-2 (Thr334) (#3041, Cell Signaling) antibody. Tubulin was used as a normalization control and was probed with Anti-Tubulin (T9026, Sigma) antibody.

[12] = system: HSB2 cells; test: Apoptosis, Annexin V / propidium iodide FACS; format: cell-based; conditions: p38 inhibitor 20 μM plus Compound 1 0.2 μM
[13] = system: Hsp70; test: Hsp70 induction by Compound 1 in the presence of Tiron; format: cell-based; conditions: Tiron (FIG. 45)
Description: as §1

[14] = RECIST, Efficacy Sample, patients (percent)

CN(NC(=O)CC(=O)NN(C)C(=S)c1ccccc1)C(=S)c1ccccc1 [elesclomol]
time post treatment at which cytochrome c and caspase 3 start to be activated [1]: 6 h
accumulation of ROS ([2]; 500 nM, time course): induces accumulation of ROS in cells shortly after drug treatment

CC(=O)O[C@H]1C(=O)[C@@]2(C)[C@H]([C@H](OC(=O)c3ccccc3)[C@]3(O)C[C@H](OC(=O)[C@H](O)[C@@H](NC(=O)c4ccccc4)c4ccccc4)C(C)=C1C3(C)C)[C@]1(OC(C)=O)CO[C@@H]1C[C@@H]2O [Paclitaxel, paclitaxel]
CR + PR (95% CI) ([3]; RECIST, Efficacy Sample): 3.7% (0.1%,19.0%)
Best Overall Response: Complete Response (CR) [3, 14]: 0
Best Overall Response: Partial Response (PR) [3, 14]: 1 (3.7%)
Best Overall Response: Progressive Disease (PD) [3, 14]: 16 (59.3%)
number of patients with partial response ([3]; Table 5): 1 patient
patients with progressive disease ([3]; Table 5): 59.3%
patients with stable disease ([3]; Table 5): 37%
dose limiting toxicities [4]: dose limiting toxicities occurred in a single patient in each of the top three dose levels

CC(=O)N[C@@H](CS)C(=O)O [NAC, N-acetyl-cysteine, reference compound]
effect of NAC on genes induced by Compound 1 [5]: inhibited the genes most robustly induced by Compound 1
inhibition of Hsp70 induction by Compound 1 ([6]; 5 mM NAC): complete inhibition in Hsp70 induction; also recorded: completely inhibited
block of ROS generation by Compound 1 ([2]; 1.0 mM or 10 mM NAC 1 hour prior to Compound 1 0.5 μM): almost completely blocked the generation of ROS by Compound 1
early apoptotic cells ([7]; NAC 5 mM alone): 11%
relative levels of apoptotic cells [7]: little or no effect
block of Compound 1-induced cell death [8]: completely blocked the ability of Compound 1 to induce cell death
inhibition of Compound 1-induced early apoptotic signaling [9]: completed inhibited early apoptotic signaling

C[S+]([O-])c1ccc(-c2nc(-c3ccncc3)c(-c3ccc(F)cc3)[nH]2)cc1 (stereo not drawn) [SB203580, reference compound]
block of Compound 1 induced phosphorylation of MSK1 [10]: blocked
inhibition of Hsp70 induction by Compound 1 ([6]; p38 inhibitor 20 uM): robust decrease in Hsp70 induction
block of Compound 1 induced phosphorylation of MAPKAPK-2 [11]: blocked
effect of p38 inhibitor on apoptosis induced by Compound 1 [12]: did not effect induction of apoptosis by Compound 1
relative levels of apoptotic cells [7]: little or no effect

O=S(=O)(O)c1cc(O)c(O)c(S(=O)(=O)O)c1 [Tiron, reference compound]
block of ROS generation by Compound 1 ([2]; 500 mM Tiron 1 hour prior to Compound 1 0.5 μM, 24 hours): blocked the ability of Compound 1 to generate ROS
block of induction of Hsp70 by Compound 1 [13]: blocks the induction of Hsp70 by Compound 1
